Molecules are shown by their SMILES.

Data set [1] deals with A431 epidermoid carcinoma cell line. Put plainly: CellTiter-Glo (CTG) cytotoxic assay. The following applies: Homo sapiens, A-431, 72 h, read-out: Cytotoxicity IC50, A431. For orientation: ATP-based viability assays read luminescence as a measure of living cells.
The test system of data set [2] is BT474 breast cancer cell line. Put plainly: CellTiter-Glo (CTG) cytotoxic assay. The following applies: Homo sapiens, BT-474, 72 h, read-out: Cytotoxicity IC50, BT474.
The test system of data set [3] is MDA-MB-468 breast cancer cell line. Put plainly: CellTiter-Glo (CTG) cytotoxic assay. Conditions: Homo sapiens, MDA-MB-468, 72 h, read-out: Cytotoxicity IC50, MDA-MB-468.
Data set [4] deals with U251 glioblastoma cell line. Put plainly: CellTiter-Glo (CTG) cytotoxic assay. Conditions: Homo sapiens, U-251, 72 h, read-out: Cytotoxicity IC50, U251.
In data set [5] the test system is HCC1954 ductal carcinoma cell line. Kind of data set: CellTiter-Glo (CTG) cytotoxic assay. The following applies: Homo sapiens, HCC1954, 72 h, read-out: Cytotoxicity IC50, HCC1954.
Data set [6] has as its system MCF-7 breast cancer cell line. Kind of data set: CellTiter-Glo (CTG) cytotoxic assay. Conditions: Homo sapiens, MCF7, 72 h, read-out: Cytotoxicity IC50, MCF-7.
Data set [7] has as its system MKN-45 gastric cancer cell line. Put plainly: CellTiter-Glo (CTG) cytotoxic assay. The following applies: Homo sapiens, MKN-45, 72 h, read-out: Cytotoxicity IC50, MKN-45.
The test system of data set [8] is Hep3B liver cancer cell line. Kind of data set: CellTiter-Glo (CTG) cytotoxic assay. Conditions: Homo sapiens, 72 h, read-out: Cytotoxicity IC50, Hep3B.
For data set [9], the system named is H1975 lung cancer cell line. Kind of data set: CellTiter-Glo (CTG) cytotoxic assay. Conditions: Homo sapiens, NCI-H1975, 72 h, read-out: Cytotoxicity IC50, H1975.
The subject of data set [10] is A673 rhabdomyoma cell line. Put plainly: CellTiter-Glo (CTG) cytotoxic assay. Conditions: Homo sapiens, A673, 72 h, read-out: Cytotoxicity IC50, A673.
In data set [11] the test system is H2228 lung cancer cell line. Put plainly: CellTiter-Glo (CTG) cytotoxic assay. The following applies: Homo sapiens, NCI-H2228, 72 h, read-out: Cytotoxicity IC50, H2228.
The test system of data set [12] is MDA-MB-231 breast cancer cell line. Put plainly: CellTiter-Glo (CTG) cytotoxic assay. The following applies: Homo sapiens, MDA-MB-231, 72 h, read-out: Cytotoxicity IC50, MDA-MB-231.
Data set [13] has as its system U87 glioblastoma cell line. Kind of data set: CellTiter-Glo (CTG) cytotoxic assay. The following applies: Homo sapiens, 72 h, read-out: Cytotoxicity IC50, U87.
Data set [14] deals with Karpass299 T cell lymphoma cell line. Kind of data set: CellTiter-Glo (CTG) cytotoxic assay. Conditions: Homo sapiens, 72 h, read-out: Cytotoxicity IC50, Karpass299.
For another data set, the system named is HL-60 leukemia cell line. Kind of data set: CellTiter-Glo (CTG) cytotoxic assay. Conditions: Homo sapiens, HL-60, 72 h, read-out: Cytotoxicity IC50, HL60.
Data set [15] relates to MV-4-11 leukemia cell line. Kind of data set: CellTiter-Glo (CTG) cytotoxic assay. Conditions: Homo sapiens, MV4-11, 72 h, read-out: Cytotoxicity IC50, MV-4-11.
Data set [16] relates to N87 gastric carcinoma cell line. Put plainly: CellTiter-Glo (CTG) cytotoxic assay. Conditions: Homo sapiens, 72 h, read-out: Cytotoxicity IC50, N87.
Data set [17] concerns H1299 lung cancer cell line. Kind of data set: CellTiter-Glo (CTG) cytotoxic assay. Conditions: Homo sapiens, NCI-H1299, 72 h, read-out: Cytotoxicity IC50, H1299.
Data set [18] relates to A549 lung cancer cell line. Kind of data set: CellTiter-Glo (CTG) cytotoxic assay. The following applies: Homo sapiens, A549, 72 h, read-out: Cytotoxicity IC50, A549.
The test system of a further data set is K562 leukemia cell line. Put plainly: CellTiter-Glo (CTG) cytotoxic assay. Conditions: Homo sapiens, K562, 72 h, read-out: Cytotoxicity IC50, K562.
In data set [19] the test system is HCT-116 human colon carcinoma cell line. Kind of data set: CellTiter-Glo (CTG) cytotoxic assay. The following applies: HCT-116, 72 h, read-out: Cytotoxicity IC50, HCT-116.
The test system of data set [20] is 143B bone osteosarcoma cell line. Put plainly: CellTiter-Glo (CTG) cytotoxic assay. Conditions: Homo sapiens, 72 h, read-out: Cytotoxicity IC50, 143B.
The test system of data set [21] is B16F10 highly metastatic mouse melanoma cell line. Kind of data set: CellTiter-Glo (CTG) cytotoxic assay. The following applies: B16-F10, 72 h, read-out: Cytotoxicity IC50, B16F10.
Data set [22] deals with SPC-A1 lung cancer cell line. Put plainly: CellTiter-Glo (CTG) cytotoxic assay. The following applies: Homo sapiens, SPCA1, 72 h, read-out: Cytotoxicity IC50, SPC-A1.
In data set [23] the test system is HUCCT1 ductal carcinoma cell line. Put plainly: CellTiter-Glo (CTG) cytotoxic assay. Conditions: Homo sapiens, HuCCT-1, 72 h, read-out: Cytotoxicity IC50, HUCCT1.
For data set [24], the system named is DU145 prostate cancer cell line. Put plainly: CellTiter-Glo (CTG) cytotoxic assay. The following applies: Homo sapiens, DU-145, 72 h, read-out: Cytotoxicity IC50, DU145.
In another data set the test system is 26 cancer cell lines. Kind of data set: CTG cytotoxic assay, summary over the panel. The following applies: read-out: IC50 values against 26 cancer cell lines, range.
Data set [25] can be described thus: CellTiter-Glo (CTG) cytotoxic assay, normal cells. Conditions: human, L02 normal liver cells.
Data set [26] is described as follows: CellTiter-Glo (CTG) cytotoxic assay, normal cells. Conditions: human, HEK-293F cells.
The subject of another data set is cancer cells. Kind of data set: Cytotoxicity (MTT, SRB, CTG), summary over all cancer cells. Conditions: read-out: IC50 values against cancer cells, range.
The test system of data set [27] is HCT-116 human colorectal cancer cell line. Put plainly: SRB cytotoxicity assay. Conditions: read-out: Cytotoxicity IC50, HCT-116; SRB method, 72 h (Table 5); NA = no activity. (Sulforhodamine B stains cellular protein and so reports cell mass.)
For data set [28], the system named is HT-29 human colorectal cancer cell line. Put plainly: SRB cytotoxicity assay. The following applies: read-out: Cytotoxicity IC50, HT-29; SRB method, 72 h (Table 5).
Data set [29] concerns P6C human colorectal cancer cell line. Kind of data set: MTT cytotoxicity assay. Conditions: read-out: Cytotoxicity IC50, P6C; MTT method, 72 h (Table 5). For orientation: Formazan colour is commonly taken as a measure of viable cells.
In data set [30] the test system is BXPC-3 human pancreatic cancer cell line. Put plainly: SRB cytotoxicity assay. The following applies: read-out: Cytotoxicity IC50, BXPC-3; SRB method, 72 h (Table 5).
For a further data set, the system named is K562 cell line. Kind of data set: MTT cytotoxicity assay. The following applies: read-out: Cytotoxicity IC50, K562; MTT method, 72 h (Table 5); NA = no activity.
The test system of data set [31] is HCT-116, HT-29, P6C and BXPC-3 cell lines. Put plainly: SRB/MTT cytotoxicity assays, summary over CRC and pancreatic lines. The following applies: Homo sapiens, read-out: IC50 values against HCT-116, HT-29, P6C and BXPC-3, range.
In another data set the test system is Jurkat cell line. Put plainly: MTT cytotoxicity assay. The following applies: read-out: Cytotoxicity IC50, Jurkat; MTT method, 72 h (Table 5).
Data set [32] has as its system MCF-7 human breast cancer cell line. Kind of data set: MTT cytotoxicity assay. The following applies: read-out: Cytotoxicity IC50, MCF-7; MTT method, 72 h (Table 5); NA = no activity.
Data set [33] deals with other 26 cell lines (Table 4 without N87). Put plainly: CTG cytotoxic assay, summary over the other cell lines of Table 4. The following applies: read-out: IC50 against other 26 cell lines.

One may read the IC50 as the concentration that inhibits the measured activity by half. As for `CC(=O)NCc1nc(-c2ccccn2)cc(O)c1[S+](C)[O-]` (racemic) [(±)-2, N-[(4-hydroxy-5-methylsulfinyl-2,2′-bipyridin-6-yl)methyl] acetamide], the IC50 in data set [1] turned out to be 4630 nM; in [2], 8240 nM; in [3], 1310 nM; in data set [4], 4790 nM; in data set [5], 2140 nM; in data set [6], 5780 nM. In addition, the half-maximal inhibitory concentration (IC50) in data set [7] amounted to 4880 nM; in [8] it was 4420 nM; in [9], 2550 nM; in data set [10], 6900 nM; in [11], 8050 nM; in data set [12] it was 920 nM. Moreover, the IC50 in data set [13] stood at 3670 nM; in [14], 3130 nM; in the data set with HL-60 leukemia cell line, 3180 nM; in data set [15], 9710 nM; in data set [16] it was 7460 nM; in data set [17] it was 7380 nM. Further, the IC50 in [18] worked out at 4180 nM; in the data set with K562 leukemia cell line, 5920 nM; in [19], 2450 nM; in [20], 8390 nM; in data set [21], 7740 nM; in data set [22] it was 7830 nM. In addition, the IC50 was 7910 nM in [23], 4510 nM in data set [24], 920 to 9710 nM with 26 cancer cell lines and 48 to 9710 nM in the data set on cancer cells. Moreover, the half-inhibitory concentration (IC50) at 72 h in data set [25] and in [26] was more than 100000 nM each time.

On to `COc1cc(-c2ccccn2)nc(/C=N/O)c1[S+](C)[O-]` (racemic) [(±)-3, pyrisulfoxin A], for which the IC50 in data set [27] was 730 nM; in data set [28], 830 nM; in data set [29], 3200 nM; in data set [30], 1600 nM; in the data set on K562 cell line it was 13000 nM; in the data set with cancer cells, 48 to 9710 nM. In addition, the IC50 in data set [31] is 48 to 3200 nM.

Consider `COc1cccc2c1C(=O)c1c(O)c3c(c(O)c1C2=O)C[C@@](O)(C(=O)CO)C[C@@H]3O[C@H]1C[C@H](N)[C@H](O)[C@H](C)O1` [Adriamycin, reference compound], for which the half-inhibitory concentration (IC50) in data set [27] stood at 210 nM; in data set [28] it was 160 nM; in [29] it was 650 nM; in [30], 32 nM; in the data set with K562 cell line, 250 nM; in the data set with Jurkat cell line, 440 nM. The IC50 in data set [32] was 860 nM; in data set [1] it was 170 nM; in [2], 1940 nM; in [3], more than 100000 nM; in data set [4], 190 nM; in data set [5], 48 nM. Besides, the half-inhibitory concentration (IC50) in data set [6] was found to be 100 nM; in data set [7], 190 nM; in data set [8], 17600 nM; in data set [9] it was 91 nM; in data set [10] it was 130 nM; in [11], 97 nM. For the same molecule, the IC50 was found to be 180 nM in [12]; 120 nM in data set [13]; 390 nM in data set [14]; 210 nM in the data set with HL-60 leukemia cell line; 160 nM in data set [15]; 120 nM in data set [16]. Besides, the IC50 is 490 nM in [17]; 99 nM in data set [18]; 18 nM in the data set on K562 leukemia cell line; 100 nM in [19]; 95 nM in [20]; 15 nM in data set [21]. In addition, the IC50 worked out at 190 nM in data set [22], 51 nM in [23] and 48 nM in data set [24]. In addition, the IC50 at 72 h in [25] stood at 96 nM; in [26], 50 nM.

For `COc1cc(-c2ccccn2)nc([C@H]2NC(=O)c3ccccc3N2)c1SC` [R(–)-14, R-Pyrisulfoxin F], in [27], the IC50 amounted to 14700 nM.

Take `COc1cc(-c2ccccn2)nc([C@@H]2NC(=O)c3ccccc3N2)c1SC` [S(+)-14, S-Pyrisulfoxin F]: the IC50 in data set [32] worked out at 10400 nM.

With `COc1cc(-c2ccccn2)nc(CO)c1[S+](C)[O-]` (stereo not shown) [compound 1, 4-methoxy-5-methylsulfinyl-2,2′-bipyridine-6-methanol], the IC50 in [16] is 8090 nM; in the data set on cancer cells, 48 to 9710 nM; in data set [33] it was more than 100000 nM. In addition, the IC50 at 72 h in data set [25] and in [26] was more than 100000 nM each time.
